Data on 1 compound can be found in US11141397B2, “Composition for improving efficacy of L-DOPA treatment” (priority 2017, dated 2021).

Entries after “also recorded” stand apart in the source; their conditions may differ.

For the experiment, the system named is intrastriatal rotenone mouse model for PD. Briefly: Rotarod test (motor function) in the intrastriatal rotenone model. It is filed as in vivo, C57BL/6J mice. As for the experimental part: Forty-eight seven week-old C57BL/6J mice (Charles River, The Netherlands) were housed at room temperature under a 12 h light/dark cycle. Food and water were provided ad libitum. […] Mice underwent stereotaxic surgery under isoflurane anesthesia: a hole was drilled in the skull and a cannula inserted in the right striatum at the following stereotaxic coordinates: AP +0.4, ML -2.0 from bregma, and DV -3.3 below dura. Rotenone-treated animals were injected with 5.4 μg of freshly prepared rotenone solution (dissolved in 2 μl DMSO). Sham-treated animals were injected with the vehicle (2 μl DMSO). 93 days after surgery the mice were euthanized by decapitation. The motor performance of each mouse was assessed in the Rotarod test as described in Inden et al. “Neurodegeneration of mouse nigrostriatal dopaminergic system induced by repeated oral administration of rotenone is prevented by 4-phenylbutyrate, a chemical chaperone” J. […] Briefly, mice were placed on an accelerating rod with speeds starting with 2 rpm and gradually increasing to 20 rpm. Time to first fall was recorded for a maximum of 300 s. […] Animals were divided into four groups of 12 animals (Sham+CD, Sham+AD, Rotenone+CD, and Rotenone+AD). […] The AD also contained supplementary amounts of choline, phospholipids, selenium, folic acid, and vitamins B6, B12, C, D, and E, above standard levels in the control diet. […] The rotarod test was started 1.5h after benserazide administration and performed as described below. […] ANOVAs were followed by a Tukey's multiple comparison test when appropriate. For the rotarod test performance over time, data were analyzed with a general linear model repeated measure ANOVA with the within subject factor time and the between subject factors surgery and diet. […] Analyses were performed using SPSS 22.0.
On the technique in general: Falling from the rotarod earlier than controls is read as motor impairment.

In the case of `N[C@@H](Cc1ccc(O)c(O)c1)C(=O)O` [levodopa, L-3,4-di-hydroxy-phenylalanine], the “rotarod performance (time on rotarod)” value (days 26 and 27 after surgery, 60 minutes after 20 mg/kg oral levodopa vs vehicle, before dietary intervention, F(1,92)=24.77, p<0.0001) is “overall effect of levodopa on the animals' motor performances”. Besides, the “effect on rotenone-induced motor dysfunction (rotarod)” value (overall effect, day 65-93, FIG. 1, three-way ANOVA) was “there was an effect; also recorded: alleviated rotenone-induced motor dysfunction”. Also, the “ability to remain on the rod” value (rotenone-injected mice on AD, levodopa 10 or 20 mg/kg vs saline or 5 mg/kg, day 65-93, p<0.001) was “better ability to remain on the rod”. For the same compound, the rotarod performance entry (rotenone-treated animals on CD, levodopa 20 mg/kg vs 5 mg/kg or saline, day 65-93, p<0.01) is reported as “performed significantly better”.
